From the kinase profiling compilation of Christmann-Franck et al. (2016)

Columns and labels:
Assay in all cases: radiometric filter-binding kinase assay, Kinase HotSpot
Settings in all cases: compound 0.5 µM; ATP 10 µM
[1] = target: ALK (human) (UniProt Q9UM73)
[2] = target: CAMK1 (human) (UniProt Q14012)
[3] = target: CDK4 CCND1 (human) (UniProt P24385+P11802)
[4] = target: CHUK (human) (UniProt O15111)
[5] = target: CLK1 (human) (UniProt P49759)
[6] = target: CLK2 (human) (UniProt P49760)
[7] = target: CLK3 (human) (UniProt P49761)
[8] = target: CSNK1G1 (human) (UniProt Q9HCP0)
[9] = target: DYRK1A (human) (UniProt Q13627)
[10] = target: DYRK4 (human) (UniProt Q9NR20)
[11] = target: EPHB2 (human) (UniProt P29323)
[12] = target: ERBB2 (human) (UniProt P04626)
[13] = target: ERBB4 (human) (UniProt Q15303)
[14] = target: HIPK1 (human) (UniProt Q86Z02)
[15] = target: IRAK1 (human) (UniProt P51617)
[16] = target: JAK2 JH1 JH2 (human) (UniProt O60674)
[17] = target: JAK3 JH1 JH2 (human) (UniProt P52333)
[18] = target: LRRK2 (human) (UniProt Q5S007)
[19] = target: MAP2K1 (human) (UniProt Q02750)
[20] = target: MAP3K11 (human) (UniProt Q16584)
[21] = target: MAP3K7 TAB1 (human) (UniProt O43318+Q15750)
[22] = target: MAPK1 (human) (UniProt P28482)
[23] = target: MARK3 (human) (UniProt P27448)
[24] = target: MKNK2 (human) (UniProt Q9HBH9)
[25] = target: MLTK (human) (UniProt Q9NYL2)
[26] = target: NEK4 (human) (UniProt P51957)
[27] = target: NTRK2 (human) (UniProt Q16620)
[28] = target: PAK2 (human) (UniProt Q13177)
[29] = target: PAK3 (human) (UniProt O75914)
[30] = target: PDPK1 (human) (UniProt O15530)
[31] = target: PLK2 (human) (UniProt Q9NYY3)
[32] = target: PRKD2 (human) (UniProt Q9BZL6)
[33] = target: PRKX (human) (UniProt P51817)
[34] = target: PTK6 (human) (UniProt Q13882)
[35] = target: RPS6KA4 KD2 (human) (UniProt O75676)
[36] = target: SRPK1 (human) (UniProt Q96SB4)
[37] = target: STK39 (human) (UniProt Q9UEW8)
[38] = target: TAOK2 (human) (UniProt Q9UL54)
[39] = target: TBK1 (human) (UniProt Q9UHD2)
[40] = target: TTK (human) (UniProt P33981)
[41] = target: TXK (human) (UniProt P42681)
[42] = target: VRK1 (human) (UniProt Q99986)

Sequence of MAP3K11 (human) (Q16584 whole entry, looked up): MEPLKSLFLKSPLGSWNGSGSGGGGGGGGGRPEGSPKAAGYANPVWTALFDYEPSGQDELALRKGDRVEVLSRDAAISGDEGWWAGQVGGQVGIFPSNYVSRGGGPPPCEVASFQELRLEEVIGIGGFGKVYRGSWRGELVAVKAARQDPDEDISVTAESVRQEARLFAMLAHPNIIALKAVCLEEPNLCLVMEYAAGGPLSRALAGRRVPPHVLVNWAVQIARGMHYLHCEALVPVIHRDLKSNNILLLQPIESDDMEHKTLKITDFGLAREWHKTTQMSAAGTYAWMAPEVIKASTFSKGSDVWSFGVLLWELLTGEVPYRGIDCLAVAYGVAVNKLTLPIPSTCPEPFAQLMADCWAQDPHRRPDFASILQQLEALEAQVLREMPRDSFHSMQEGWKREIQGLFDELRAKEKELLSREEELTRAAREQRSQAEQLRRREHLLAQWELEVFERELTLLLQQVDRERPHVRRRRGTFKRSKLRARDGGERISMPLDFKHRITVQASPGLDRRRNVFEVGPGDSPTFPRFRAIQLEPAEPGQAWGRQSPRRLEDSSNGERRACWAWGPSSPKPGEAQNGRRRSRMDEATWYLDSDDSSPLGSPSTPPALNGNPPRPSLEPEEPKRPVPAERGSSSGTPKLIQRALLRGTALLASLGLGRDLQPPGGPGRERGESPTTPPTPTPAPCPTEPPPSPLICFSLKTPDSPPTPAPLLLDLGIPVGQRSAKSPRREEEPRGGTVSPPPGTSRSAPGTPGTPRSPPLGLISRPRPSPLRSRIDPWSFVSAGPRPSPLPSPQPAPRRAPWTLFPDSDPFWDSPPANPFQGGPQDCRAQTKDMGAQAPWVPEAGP
Sequence of TBK1 (human) (Q9UHD2 whole entry, looked up): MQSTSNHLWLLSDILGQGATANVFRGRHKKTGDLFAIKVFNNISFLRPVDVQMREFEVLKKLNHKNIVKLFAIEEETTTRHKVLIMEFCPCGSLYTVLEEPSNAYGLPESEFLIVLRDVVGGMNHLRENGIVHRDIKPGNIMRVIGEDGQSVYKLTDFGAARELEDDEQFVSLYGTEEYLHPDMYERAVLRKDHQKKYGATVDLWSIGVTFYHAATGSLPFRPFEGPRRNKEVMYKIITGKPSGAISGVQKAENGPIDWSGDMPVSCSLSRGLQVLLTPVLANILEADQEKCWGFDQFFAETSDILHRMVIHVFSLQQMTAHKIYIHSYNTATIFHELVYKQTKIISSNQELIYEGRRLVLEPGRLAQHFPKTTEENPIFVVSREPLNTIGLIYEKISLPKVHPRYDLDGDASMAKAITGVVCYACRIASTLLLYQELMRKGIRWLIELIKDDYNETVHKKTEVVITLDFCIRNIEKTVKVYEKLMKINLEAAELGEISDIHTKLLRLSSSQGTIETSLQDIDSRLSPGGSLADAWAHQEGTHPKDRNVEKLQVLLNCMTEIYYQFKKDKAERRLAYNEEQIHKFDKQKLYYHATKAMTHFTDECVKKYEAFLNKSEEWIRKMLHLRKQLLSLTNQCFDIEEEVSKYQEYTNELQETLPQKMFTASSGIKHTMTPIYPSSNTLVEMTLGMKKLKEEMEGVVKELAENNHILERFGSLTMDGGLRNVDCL
Sequence of MAPK1 (human) (P28482 whole entry, looked up): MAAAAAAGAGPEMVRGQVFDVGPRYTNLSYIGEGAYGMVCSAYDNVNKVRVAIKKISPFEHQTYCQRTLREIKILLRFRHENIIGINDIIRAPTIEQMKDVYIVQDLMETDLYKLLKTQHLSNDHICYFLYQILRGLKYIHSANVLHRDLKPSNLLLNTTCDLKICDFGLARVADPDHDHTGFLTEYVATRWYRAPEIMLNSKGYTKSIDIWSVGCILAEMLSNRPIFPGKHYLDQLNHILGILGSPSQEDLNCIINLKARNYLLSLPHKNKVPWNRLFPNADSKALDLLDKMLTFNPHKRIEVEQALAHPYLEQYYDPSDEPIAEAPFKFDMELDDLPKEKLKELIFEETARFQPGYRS
Sequence of ERBB4 (human) (Q15303 whole entry, looked up): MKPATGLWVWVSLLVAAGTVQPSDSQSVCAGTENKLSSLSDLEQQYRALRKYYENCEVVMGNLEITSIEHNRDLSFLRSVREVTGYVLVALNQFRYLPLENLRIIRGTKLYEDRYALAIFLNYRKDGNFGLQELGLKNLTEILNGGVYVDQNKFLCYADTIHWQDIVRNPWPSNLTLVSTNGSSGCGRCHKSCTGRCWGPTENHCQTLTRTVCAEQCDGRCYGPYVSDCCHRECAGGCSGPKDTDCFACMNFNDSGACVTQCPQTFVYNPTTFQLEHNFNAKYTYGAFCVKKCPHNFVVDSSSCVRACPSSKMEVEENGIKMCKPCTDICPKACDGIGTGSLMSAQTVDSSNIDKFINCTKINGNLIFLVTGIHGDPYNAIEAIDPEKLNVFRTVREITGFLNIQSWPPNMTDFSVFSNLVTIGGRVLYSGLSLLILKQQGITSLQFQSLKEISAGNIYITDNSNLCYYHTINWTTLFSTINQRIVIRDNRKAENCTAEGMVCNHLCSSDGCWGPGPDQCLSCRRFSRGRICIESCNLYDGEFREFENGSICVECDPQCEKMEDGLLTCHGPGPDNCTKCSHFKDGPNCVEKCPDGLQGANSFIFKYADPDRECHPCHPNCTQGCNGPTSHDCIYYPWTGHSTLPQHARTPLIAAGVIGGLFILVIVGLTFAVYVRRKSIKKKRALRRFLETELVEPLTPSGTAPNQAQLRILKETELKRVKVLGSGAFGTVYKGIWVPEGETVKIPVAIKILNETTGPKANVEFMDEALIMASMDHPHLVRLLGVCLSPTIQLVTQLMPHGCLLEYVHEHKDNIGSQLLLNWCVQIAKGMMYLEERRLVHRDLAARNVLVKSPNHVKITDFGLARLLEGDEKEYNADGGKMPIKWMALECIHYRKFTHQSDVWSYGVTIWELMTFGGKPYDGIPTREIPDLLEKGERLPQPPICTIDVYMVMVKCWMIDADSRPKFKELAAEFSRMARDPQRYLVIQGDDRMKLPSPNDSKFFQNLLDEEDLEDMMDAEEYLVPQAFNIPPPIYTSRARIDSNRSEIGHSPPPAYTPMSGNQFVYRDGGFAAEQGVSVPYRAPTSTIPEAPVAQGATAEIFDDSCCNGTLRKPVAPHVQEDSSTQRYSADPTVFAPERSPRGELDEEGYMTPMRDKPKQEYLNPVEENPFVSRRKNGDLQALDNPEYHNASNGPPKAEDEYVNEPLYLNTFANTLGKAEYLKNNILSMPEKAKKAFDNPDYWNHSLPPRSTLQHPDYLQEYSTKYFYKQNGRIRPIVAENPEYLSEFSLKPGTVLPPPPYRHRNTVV
Sequence of PRKX (human) (P51817 whole entry, looked up): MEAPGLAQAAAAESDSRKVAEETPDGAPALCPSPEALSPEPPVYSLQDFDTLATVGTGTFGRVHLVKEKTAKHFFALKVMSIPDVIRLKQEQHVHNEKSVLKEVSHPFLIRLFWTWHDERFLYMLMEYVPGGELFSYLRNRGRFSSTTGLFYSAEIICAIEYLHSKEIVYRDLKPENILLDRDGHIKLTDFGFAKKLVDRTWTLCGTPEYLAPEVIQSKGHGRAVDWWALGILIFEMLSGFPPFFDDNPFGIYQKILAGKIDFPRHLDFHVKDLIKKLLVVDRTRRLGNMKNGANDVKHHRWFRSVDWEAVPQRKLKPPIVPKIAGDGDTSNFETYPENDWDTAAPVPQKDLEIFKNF
Sequence of NEK4 (human) (P51957 whole entry, looked up): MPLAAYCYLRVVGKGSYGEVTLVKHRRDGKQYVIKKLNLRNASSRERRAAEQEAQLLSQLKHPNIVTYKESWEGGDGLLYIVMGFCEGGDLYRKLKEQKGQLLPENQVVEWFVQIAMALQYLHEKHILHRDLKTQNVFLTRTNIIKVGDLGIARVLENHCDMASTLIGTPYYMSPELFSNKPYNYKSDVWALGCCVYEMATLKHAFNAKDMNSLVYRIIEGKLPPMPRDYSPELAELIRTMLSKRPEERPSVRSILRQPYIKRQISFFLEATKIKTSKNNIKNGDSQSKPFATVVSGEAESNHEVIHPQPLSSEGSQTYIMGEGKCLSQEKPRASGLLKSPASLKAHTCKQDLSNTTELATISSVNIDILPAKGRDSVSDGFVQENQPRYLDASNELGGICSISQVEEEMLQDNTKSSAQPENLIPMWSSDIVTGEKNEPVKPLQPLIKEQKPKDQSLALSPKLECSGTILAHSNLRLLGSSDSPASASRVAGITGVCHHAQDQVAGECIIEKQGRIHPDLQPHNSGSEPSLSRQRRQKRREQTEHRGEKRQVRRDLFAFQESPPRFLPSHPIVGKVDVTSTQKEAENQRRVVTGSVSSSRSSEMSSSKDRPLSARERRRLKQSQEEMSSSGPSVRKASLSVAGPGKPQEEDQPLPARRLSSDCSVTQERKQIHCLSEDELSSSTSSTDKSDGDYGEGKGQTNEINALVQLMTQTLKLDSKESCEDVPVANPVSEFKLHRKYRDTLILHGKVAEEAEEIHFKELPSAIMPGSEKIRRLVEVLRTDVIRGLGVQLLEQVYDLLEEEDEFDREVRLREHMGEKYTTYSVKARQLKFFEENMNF
Sequence of DYRK4 (human) (Q9NR20 whole entry, looked up): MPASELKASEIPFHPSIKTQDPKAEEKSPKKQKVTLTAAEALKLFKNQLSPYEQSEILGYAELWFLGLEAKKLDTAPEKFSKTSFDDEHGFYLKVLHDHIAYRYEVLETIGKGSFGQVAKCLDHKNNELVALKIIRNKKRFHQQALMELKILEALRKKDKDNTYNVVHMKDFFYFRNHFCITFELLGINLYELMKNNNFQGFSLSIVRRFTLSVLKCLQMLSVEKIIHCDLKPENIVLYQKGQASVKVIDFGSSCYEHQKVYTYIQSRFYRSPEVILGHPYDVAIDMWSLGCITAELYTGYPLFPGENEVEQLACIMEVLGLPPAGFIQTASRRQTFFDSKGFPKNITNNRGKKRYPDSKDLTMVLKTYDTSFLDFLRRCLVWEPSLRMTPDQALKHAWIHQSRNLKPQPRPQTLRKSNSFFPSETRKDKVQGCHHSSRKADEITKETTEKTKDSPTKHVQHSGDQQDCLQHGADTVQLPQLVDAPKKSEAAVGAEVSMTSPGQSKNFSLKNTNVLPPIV

O=C1NC(=O)c2c1c1c3ccccc3n3c1c1c2c2ccccc2n1C1CCC3O1
residual activity [1]: 36.9% | residual activity [2]: 69.7% | residual activity [3]: 11.2% | residual activity [4]: 106% | residual activity [5]: 43.1% | residual activity [6]: 52.1% | residual activity [7]: 97% | residual activity [8]: 96.1% | residual activity [9]: 8.74% | residual activity [10]: 87.8% | residual activity [11]: 98.4% | residual activity [12]: 98.4% | residual activity [13]: 72.5% | residual activity [14]: 93.6% | residual activity [15]: 37.5% | residual activity [16]: 14.2% | residual activity [17]: 1.87% | residual activity [18]: 1.91% | residual activity [19]: 29.5% | residual activity [20]: 1.37% | residual activity [21]: 6.06% | residual activity [22]: 88.7% | residual activity [23]: 8.53% | residual activity [24]: 9.71% | residual activity [25]: 89.7% | residual activity [26]: 22% | residual activity [27]: 6.87% | residual activity [28]: 43.9% | residual activity [29]: 41.7% | residual activity [30]: 10.6% | residual activity [31]: 62.4% | residual activity [32]: 2.02% | residual activity [33]: 17.5% | residual activity [34]: 83.9% | residual activity [35]: 12.4% | residual activity [36]: 88.1% | residual activity [37]: 88.3% | residual activity [38]: 57.4% | residual activity [39]: 7.4% | residual activity [40]: 76.4% | residual activity [41]: 22.7% | residual activity [42]: 90.2%

CC(C)N(CCC(=O)c1ccc2ccccc2c1)Cc1ccccc1
residual activity [1]: 88.9% | residual activity [2]: 104% | residual activity [3]: 103% | residual activity [4]: 96.4% | residual activity [5]: 109% | residual activity [6]: 96.3% | residual activity [7]: 99.6% | residual activity [8]: 101% | residual activity [9]: 105% | residual activity [10]: 88.5% | residual activity [11]: 102% | residual activity [12]: 98.7% | residual activity [13]: 91.7% | residual activity [14]: 106% | residual activity [15]: 102% | residual activity [16]: 97.5% | residual activity [17]: 80.9% | residual activity [18]: 98.2% | residual activity [19]: 82.5% | residual activity [20]: 97% | residual activity [21]: 95.4% | residual activity [22]: 87.4% | residual activity [23]: 101% | residual activity [24]: 100% | residual activity [25]: 90.5% | residual activity [26]: 95.7% | residual activity [27]: 92.1% | residual activity [28]: 107% | residual activity [29]: 98.6% | residual activity [31]: 97% | residual activity [32]: 98.5% | residual activity [33]: 99.6% | residual activity [34]: 96.4% | residual activity [35]: 109% | residual activity [36]: 103% | residual activity [37]: 88.3% | residual activity [38]: 96.1% | residual activity [39]: 92.4% | residual activity [40]: 96% | residual activity [41]: 97.1% | residual activity [42]: 95.8%

CCOC(=O)c1c(C)[nH]c(/C=C2\C(=O)Nc3ccccc32)c1C
residual activity [1]: 79.2% | residual activity [2]: 98.1% | residual activity [3]: 103% | residual activity [4]: 102% | residual activity [5]: 98.2% | residual activity [6]: 86% | residual activity [7]: 100% | residual activity [8]: 103% | residual activity [9]: 95.7% | residual activity [10]: 99.6% | residual activity [11]: 95.4% | residual activity [12]: 101% | residual activity [13]: 71.2% | residual activity [14]: 97.3% | residual activity [15]: 111% | residual activity [16]: 96.7% | residual activity [17]: 69.1% | residual activity [18]: 28.6% | residual activity [20]: 47% | residual activity [21]: 85.8% | residual activity [22]: 96.4% | residual activity [23]: 99.8% | residual activity [24]: 87.4% | residual activity [25]: 92.7% | residual activity [26]: 95.1% | residual activity [27]: 66.6% | residual activity [28]: 92.5% | residual activity [29]: 99.1% | residual activity [30]: 92.5% | residual activity [31]: 102% | residual activity [32]: 97.1% | residual activity [33]: 94.8% | residual activity [34]: 82.8% | residual activity [35]: 87% | residual activity [36]: 95.4% | residual activity [37]: 85.1% | residual activity [38]: 105% | residual activity [39]: 70.5% | residual activity [40]: 96.6% | residual activity [41]: 96.1% | residual activity [42]: 104%
